Test results as given in US20040198789A1, “Lercanidipine/ARB/diuretic therapeutic combinations” (Recordati Ireland Limited, priority 2003, published 2004).
Where “and” joins values, the source holds several entries; their conditions need not be identical. Identical values can stand only once.

Tests used:
[1] = system: isolated rat aorta; details: in vitro; even after repeated wash-out during 6 hours; cited from earlier work
[2] = cited from earlier work
[3] = system: reperfusion-induced hypertension in uninephrectomized anesthetized rats; test: Model of acute angiotensin-mediated renal hypertension in anesthetized rats (SBP, DBP, HR); format: in vivo, rat
[4] = system: reperfusion-induced hypertension in uninephrectomized anesthetized rats; test: as above; format: in vivo, rat; remark: listed apart in the source
Experimental: Male Sprague-Dawley rats, weighing 250-300 g, were anaesthetized with pentobarbital sodium (35 mg/kg, i.p.) and placed on a thermic blanket. The temperature was maintained at 37° C. with a thermoregulator via a rectal probe. The animals were tracheotomized to facilitate spontaneous breathing. A polyethylene catheter was placed in the left jugular vein to allow for infusion of pentobarbital sodium to maintain anesthesia. The left femoral vein and artery were cannulated with polyethylene catheters to allow drugs administration and to monitor blood pressure, respectively.
Animals then underwent a left nephrectomy by excising the left kidney via a flank incision. The right kidney and renal vein, artery and ureter were then exposed via a right retroperitoneal incision, under a dissecting microscope. Silk threads were placed around both vessels and ureter. The cavity was then covered with Vaseline oil.
After 30-60 minutes of basal recordings of arterial blood pressure and heart rate the threads around the renal vessels and ureter were tied close to the renal hilum to induce complete renal ischemia of the right kidney. After 2 hours of ischemia, the threads were removed to allow renal reperfusion and urine output.
For irbesartan experiments and comparisons, control (vehicle) or drug (irbesartan (100 μg/kg), lercanidipine (7.5 μg/kg), or both lercanidipine (7.5 μg/kg) and irbesartan (100 μg/kg)) were administered intravenously at 5 min after reperfusion was begun.
Results were expressed as mean values ±S.E. (in the tables) and in percent change observed.
To evaluate the effects of drugs administration on blood pressure and heart rate within each group, two-way ANOVA and Dunnet's test were used (“within treatment”). To evaluate the statistical differences among the treatment groups, data are analyzed using a three-way ANOVA (analysis of variance) with repeated measures on factor time and pre-planned multiple comparisons. The analysis was performed using, for each treatment, delta values (log transformation). […] (“between treatments”).

[5] = following oral administration; cited from earlier work
[6] = between treatments, three-way ANOVA on delta values, lercanidipine 10 μg/kg, valsartan 30 μg/kg i.v.
[7] = within treatment vs […], lercanidipine 10 μg/kg or valsartan 30 μg/kg i.v.
[8] = between treatments, three-way ANOVA on delta values, lercanidipine 7.5 μg/kg, irbesartan 100 μg/kg i.v.
[9] = between treatments, three-way ANOVA on delta values, lercanidipine 7.5 μg/kg, olmesartan free acid 10 μg/kg i.v.
[10] = lercanidipine 7.5 μg/kg i.v., n=6, time 0 min, basal, pre-drug
[11] = lercanidipine 7.5 μg/kg i.v., n=6, time 120 min, end of ischemia, pre-drug
[12] = lercanidipine 7.5 μg/kg i.v., n=6, time 130 min, 5 min after drug
[13] = lercanidipine 7.5 μg/kg i.v., n=6, time 135 min, 10 min after drug
[14] = lercanidipine 7.5 μg/kg i.v., n=6, time 150 min, 25 min after drug
[15] = lercanidipine 7.5 μg/kg i.v., n=6, time 165 min, 40 min after drug
[16] = lercanidipine 7.5 μg/kg i.v., n=6, time 180 min, 55 min after drug
[17] = lercanidipine 7.5 μg/kg i.v., n=6, time […], 5 min reperfusion, pre-drug
[18] = lercanidipine 10 μg/kg i.v., n=5, time 0 min, basal, pre-drug
[19] = lercanidipine 10 μg/kg i.v., n=5, time 120 min, end of ischemia, pre-drug
[20] = lercanidipine 10 μg/kg i.v., n=5, time 130 min, 5 min after drug
[21] = lercanidipine 10 μg/kg i.v., n=5, time 135 min, 10 min after drug
[22] = lercanidipine 10 μg/kg i.v., n=5, time 150 min, 25 min after drug
[23] = lercanidipine 10 μg/kg i.v., n=5, time 165 min, 40 min after drug
[24] = lercanidipine 10 μg/kg i.v., n=5, time 180 min, 55 min after drug
[25] = lercanidipine 10 μg/kg i.v., n=5, time […], 5 min reperfusion, pre-drug

For `COC(=O)C1=C(C)NC(C)=C(C(=O)OC(C)(C)CN(C)CCC(c2ccccc2)c2ccccc2)C1c1cccc([N+](=O)[O-])c1` (stereo not drawn) [lercanidipine, methyl 1,1,N-trimethyl-N-(3,3-diphenylpropyl)-2-aminoethyl 1,4-dihydro-2,6-dimethyl-4-(3-nitrophenyl)pyridine-3,5-dicarboxylate], the “isolated rat aorta response to high K+” value [1] is given as “attenuated”, the “tachycardia reported as a side effect, patients” value ([2]; hypertensive patients on lercanidipine) is given as 0-9% and the “heart palpitations, patients reporting” value ([2]; patients administered lercanidipine) is given as 0-9%. For the same compound, the “Diastolic blood pressure: general differences among groups: p vs Vehicle” value [3, 6] was “p < 0.01”, the “Heart rate: general differences among groups: p vs Vehicle” value [3, 6] was “p < 0.05” and the “Systolic blood pressure: general differences among groups: p vs Vehicle” value [3, 6] was “ns”. The “effect on heart rate (in words)” value ([3]; lercanidipine 10 μg/kg, valsartan 30 μg/kg i.v., alone or together) was “positive chronotropic effect”, the “time of statistically significant decrease in diastolic blood pressure after administration” value [3, 7] was 5 to 55 min and the “Diastolic blood pressure: general differences among groups: p vs Irbesartan” value [4, 8] was “ns”. The “Diastolic blood pressure: general differences among groups: p vs Vehicle” value [4, 8] was “p < 0.05”, the “Heart rate differences among groups: p vs Irbesartan” value [4, 8] was “p < 0.001” and the “Heart rate differences among groups: p vs Vehicle” value [4, 8] was “p < 0.01”. The “Systolic blood pressure differences among groups: p vs Irbesartan” value [4, 8] was “ns”, the “Systolic blood pressure differences among groups: p vs Vehicle” value [4, 8] was “ns” and the “Diastolic blood pressure differences among treatment groups: p vs Olmesartan” value [4, 9] was “ns”. For the same compound, the “Diastolic blood pressure differences among treatment groups: p vs Vehicle” value [4, 9] was “p < 0.05”, the “Heart rate differences among treatment groups: p vs Olmesartan” value [4, 9] was “p < 0.001” and the “Heart rate differences among treatment groups: p vs Vehicle” value [4, 9] was “p < 0.01”. For the same compound, the “Systolic blood pressure differences among treatment groups: p vs Olmesartan” value [4, 9] was “ns”, the “Systolic blood pressure differences among treatment groups: p vs Vehicle” value [4, 9] was “ns” and the “Diastolic blood pressure: general differences among groups: p vs Valsartan” value [4, 6] was “ns”. The “Heart rate: general differences among groups: p vs Valsartan” value [4, 6] was “p < 0.01”, the “Systolic blood pressure: general differences among groups: p vs Valsartan” value [4, 6] was “ns” and the DBP [4, 10] was 75.7 ± 1.7 mmHg. It also gave an HR [4, 10] of 383.3 ± 12.0 beats/min, an SBP [4, 10] of 120.7 ± 3.5 mmHg and a DBP [4, 11] of 63.3 ± 2.9 mmHg. It also gave an HR [4, 11] of 381.7 ± 7.5 beats/min, an SBP [4, 11] of 105.2 ± 5.3 mmHg and an HR [4, 12] of 434.2 ± 15.3 b beats/min. The SBP [4, 12] was 136.7 ± 7.4 mmHg, the HR [4, 13] was 426.7 ± 14.3 b beats/min and the SBP [4, 13] was 140.7 ± 7.1 mmHg and 140.7 ± 7.1b mmHg. The HR [4, 14] was 411.7 ± 12.8 b beats/min, the SBP [4, 14] was 143.2 ± 7.2 mmHg and the HR [4, 15] was 411.7 ± 15.6 b beats/min. For the same compound, the SBP [4, 15] was 144.5 ± 9.1 mmHg, the HR [4, 16] was 410.0 ± 18.3 b beats/min and the SBP [4, 16] was 136.8 ± 8.4 mmHg and 136.8 ± 8.4b mmHg. It also gave a DBP [4, 17] of 117.2 ± 4.4 mmHg, an HR [4, 17] of 346.7 ± 8.4 beats/min and an SBP [4, 17] of 160.7 ± 8.5 mmHg. For the same compound, the “effect on heart rate (in words)” value ([4]; lercanidipine 7.5 μg/kg, irbesartan 100 μg/kg i.v., alone or together) was “increase in heart rate”, the “effect on blood pressure (in words)” value ([4]; lercanidipine 7.5 μg/kg, irbesartan 100 μg/kg i.v., alone or together, 5 min after reperfusion) was “statistically significant decrease in both systolic and diastolic blood pressure” and the “effect on heart rate (in words)” value ([4]; lercanidipine 7.5 μg/kg, olmesartan free acid 10 μg/kg i.v., alone or together) was “increase in heart rate”. It also gave a DBP [4, 18] of 69.8 ± 4.1 mmHg, an HR [4, 18] of 350.0 ± 3.2 beats/min and an SBP [4, 18] of 133.8 ± 6.1 mmHg. For the same compound, the DBP [4, 19] was 64.6 ± 4.5 mmHg, the HR [4, 19] was 350.0 ± 3.5 beats/min and the SBP [4, 19] was 134.8 ± 6.2 mmHg. It also gave a DBP [4, 20] of 77.4 ± 4.1 b mmHg, an HR [4, 20] of 434.0 ± 27.9 b beats/min and an SBP [4, 20] of 149.2 ± 5.4 mmHg. It also gave a DBP [4, 21] of 77.8 ± 3.2 b mmHg, an HR [4, 21] of 438.0 ± 22.2 b beats/min and an SBP [4, 21] of 145.4 ± 5.0 b mmHg. It also gave a DBP [4, 22] of 76.4 ± 7.2 b mmHg, an HR [4, 22] of 425.0 ± 14.7 b beats/min and an SBP [4, 22] of 143.8 ± 5.5 b mmHg. The DBP [4, 23] was 78.4 ± 8.4 b mmHg, the HR [4, 23] was 423.0 ± 15.1 b beats/min and the SBP [4, 23] was 138.2 ± 8.6 b mmHg. The DBP [4, 24] was 76.2 ± 7.3 b mmHg, the HR [4, 24] was 421.0 ± 14.7 b beats/min and the SBP [4, 24] was 138.8 ± 4.9 b mmHg. It also gave a DBP [4, 25] of 105.6 ± 5.0 mmHg, an HR [4, 25] of 345.0 ± 5.5 beats/min and an SBP [4, 25] of 167.6 ± 4.0 mmHg. For the same compound, the “time of statistically significant decrease in diastolic blood pressure after administration” value ([4]; within treatment vs […], lercanidipine 7.5 μg/kg or olmesartan free acid 10 μg/kg i.v.) was 5 to 55 min, the “time of statistically significant decrease in systolic blood pressure after administration” value [4, 7] was 10 to 55 min and the “time of peak serum/plasma concentration” value [5] was 2 to 3 h.
